Experiment [1] has as its system mouse. Description: Mouse acetic acid squirming method. Format: in vivo. As to conditions: for Squirming X ± SE: dose 20 mg/kg, 1 hour before 0.2 ml 1% acetic acid into abdominal cavity, squirmings counted over 10 minutes, male mice; for inflammation and pain relieving effect compared with aspirin: 20 mg/kg each, mouse acetic acid squirming. The text has this: The pain and inflammation relieving effect of Laetispicine has been studied by the mouse acetic acid squirming method. In this study, 30 male mice were selected; each of them weighed 20 grams. These mice were divided randomly into 3 groups: Laetispicine group (10 mice), aspirin group (10 mice), and control group (10 mice). Laetispicine of 20 milligram/kilogram body weight in vehicle solution was given to each of the ten mice in Laetispicine group. For a positive control, aspirin of 20 milligram/kilogram body weight in vehicle solution was given to each of the ten mice in aspirin group. Vehicle solution only was given to ten mice in control group (negative control group). One hour later, each mouse was given 0.2 milliliter of 1% acetic acid solution by injection to its abdominal cavity. After the mouse squirmed first time, every squirming of each of the mouse was counted in a period of 10 minutes.

Experiment [2] relates to mouse. Description: Mouse forced swimming experiment. Format: in vivo. As to conditions: for Motionless Time (sec.) X ± SE: 1 hour after dosing, recorded over 4 minutes after 2 minutes adaptation, 10 mice per group; for anti-depression effect compared with Fluoxetine (Prozac): mouse forced swimming, relative to Fluoxetine. From the text:
Mouse forced swimming experiment is by far the best animal model to screen anti-depression drugs. The experiment is designed to create a despaired situation for a mouse by confining the mouse in a container filled with water. Mouse in water will swim to safety. When the mouse cannot find a way out after it tried in the water in the container, it despaired of swimming. There is psychological difference of different mice in the situation. A calm mouse is still swimming and trying to find a way out of the container, while a despaired mouse swims relatively less (moves less). A depressed mouse despairs easily. The more depressed the mouse, the severer the despair.
In this experiment, sixty mice were divided into 6 groups (10 mice in each group). (Referring to Table 1 and FIG. 2) Each mouse in experiment group 1 (Laetispicine 1) was given Laetispicine 50 milligram/kilogram body weight, each mouse in experiment group 2 (Laetispicine 2) was given Laetispicine 20 milligram/kilogram body weight, each mouse in experiment group 3 (Laetispicine 3) was given Laetispicine 10 milligram/kilogram body weight and each mouse in experiment group 4 (Laetispicine 4) was given Laetispicine 5 milligram/kilogram body weight. Fluoxetine (Prozac) was given 50 milligram/kilogram body weight to each mouse of positive control group (Fluoxetine), and placebo was given to each mouse of negative control group.
After receiving the drugs (or placebo) 1 hour later, mice were put into a glass container with a long and narrow opening. The dimension of the container is 30 cm height, filled with water to 15 cm deep.

Structures are written as SMILES.

With `CC(=O)Oc1ccccc1C(=O)O` [Aspirin, reference compound], the “Squirming X ± SE” value in the experiment with mouse [1] came to 16.8 ± 3.43.
For `CNCCC(Oc1ccc(C(F)(F)F)cc1)c1ccccc1` (stereo not drawn) [Fluoxetine, reference compound], the “Motionless Time (sec.) X ± SE” value in the experiment on mouse [2] (dose 50 mg/kg) was 113.44 ± 10.10 s.
In the case of `CC(C)CNC(=O)/C=C/C=C/CCC/C=C/Cc1ccc2c(c1)OCO2` [Laetispicine, N-isobutyl-11-(3,4-methylendioxyphenyl)-2E,4E,9E-undecatrienamide], the “inflammation and pain relieving effect compared with aspirin” value with mouse [1] was “equivalent to that of aspirin”; with mouse [1] (listed as Lactispicine), “equivalent to the effect of Aspirin”. Further, the “Squirming X ± SE” value in the experiment on mouse [1] is given as 16.7 ± 4.92. Further, in the experiment on mouse [2] (Table 1 and FIG. 2, 5-50 mg/kg), the “effect on mouse depression (in words)” value was “significantly reduced the mouse depression”. Besides, the “Motionless Time (sec.) X ± SE” value in the experiment on mouse [2] (dose 5 mg/kg) was 158.78 ± 5.13 s; with mouse [2] (dose 10 mg/kg), 131.0 ± 8.86 s; in the experiment on mouse [2] (dose 20 mg/kg) it was 50.11 ± 12.69 s; with mouse [2] (dose 50 mg/kg), 17.67 ± 5.33 s. In addition, the “anti-depression effect compared with Fluoxetine (Prozac)” value in the experiment with mouse [2] is “five times effective than that of Prozac”; in the experiment with mouse [2] (listed as Lactispicine) it was 5 times.

These data come from patent US6858648B2, “Laetispicine and laetispicine analogues, methods of use and preparation” (Fudan University, priority 2002, dated 2005).
